Paper PMC6039549, “The Sodium Sialic Acid Symporter From Staphylococcus aureus Has Altered Substrate Specificity” (Frontiers in Chemistry, 2018)

Legend:
[1] = biological target: T1, SaSiaT (sodium sialic acid symporter) (Staphylococcus aureus, UniProt A0A0H2XJ46); assay: isothermal titration calorimetry (n = […]); microscale thermophoresis gives Kd =[…]; proteoliposome transport KM […]; format: binding
T1 construct: gene SAUSA300_0314; recombinant SaSiaT, GFP-tag cleaved with HRV3C protease, purified in DDM
T1 sequence (A0A0H2XJ46 entry or part of it): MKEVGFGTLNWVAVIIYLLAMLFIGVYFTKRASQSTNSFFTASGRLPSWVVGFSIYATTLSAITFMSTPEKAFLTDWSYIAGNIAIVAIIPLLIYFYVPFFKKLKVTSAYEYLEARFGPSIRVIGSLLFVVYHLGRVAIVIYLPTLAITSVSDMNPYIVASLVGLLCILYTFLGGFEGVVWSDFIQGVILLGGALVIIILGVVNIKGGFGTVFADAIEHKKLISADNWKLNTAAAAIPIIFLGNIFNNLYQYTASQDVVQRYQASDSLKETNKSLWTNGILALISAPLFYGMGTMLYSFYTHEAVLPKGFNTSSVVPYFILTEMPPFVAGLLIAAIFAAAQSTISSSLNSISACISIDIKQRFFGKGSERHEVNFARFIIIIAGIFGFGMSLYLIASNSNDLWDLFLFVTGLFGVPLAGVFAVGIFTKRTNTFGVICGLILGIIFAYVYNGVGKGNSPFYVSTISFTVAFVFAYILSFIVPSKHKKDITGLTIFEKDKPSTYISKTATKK

[2] = biological target: T1, SaSiaT (sodium sialic acid symporter); assay: isothermal titration calorimetry (n = […]); microscale thermophoresis gives Kd =[…]; format: binding

Structure (SMILES): CC(=O)N[C@H]1[C@H]([C@H](O)[C@H](O)CO)OC(O)(C(=O)O)C[C@@H]1O (some centres unmarked) [Neu5Ac, N-acetylneuraminic acid]
- Kd [1]: 106 ± 2 µM

Structure (SMILES): O=C(CO)N[C@H]1[C@H]([C@H](O)[C@H](O)CO)O[C@@](O)(C(=O)O)C[C@@H]1O [Neu5Gc, N-glycolylneuraminic acid]
- Kd [2]: 18 ± 2 µM
